Assay results taken from ChEMBL document CHEMBL4680228 (Eur J Med Chem, 2020).
Calls of active or inactive are those of the source. The rule behind the calls is not given here.

Key:
cells = conditions: Homo sapiens, NCI-H1688
Description: Antiproliferative activity against human NCI-H1688 cells assessed as inhibition of cell proliferation

NCI-H69 = experiment: Antiproliferative activity against human NCI-H69 cells assessed as inhibition of cell proliferation; type: functional, cell-based
EML4-ALK = EML4-ALK (Homo sapiens, UniProt Q9UM73, G1202R); experiment: Inhibition of EML4-ALK G1202R mutant fusion protein (unknown origin) expressed in HEK293T cells; type: cell-based
[1] = target: T1, von Hippel-Lindau disease tumor suppressor/ALK tyrosine kinase receptor/Nucleophosmin (Homo sapiens, UniProt Q9UM73+P06748+P40337); experiment: Protac activity at VHL/NPM-ALK fusion protein in human SR cells assessed as degradation of ALK; type: cell-based
Target sequence in this assay (Q9UM73 whole entry, the tested form may be a part): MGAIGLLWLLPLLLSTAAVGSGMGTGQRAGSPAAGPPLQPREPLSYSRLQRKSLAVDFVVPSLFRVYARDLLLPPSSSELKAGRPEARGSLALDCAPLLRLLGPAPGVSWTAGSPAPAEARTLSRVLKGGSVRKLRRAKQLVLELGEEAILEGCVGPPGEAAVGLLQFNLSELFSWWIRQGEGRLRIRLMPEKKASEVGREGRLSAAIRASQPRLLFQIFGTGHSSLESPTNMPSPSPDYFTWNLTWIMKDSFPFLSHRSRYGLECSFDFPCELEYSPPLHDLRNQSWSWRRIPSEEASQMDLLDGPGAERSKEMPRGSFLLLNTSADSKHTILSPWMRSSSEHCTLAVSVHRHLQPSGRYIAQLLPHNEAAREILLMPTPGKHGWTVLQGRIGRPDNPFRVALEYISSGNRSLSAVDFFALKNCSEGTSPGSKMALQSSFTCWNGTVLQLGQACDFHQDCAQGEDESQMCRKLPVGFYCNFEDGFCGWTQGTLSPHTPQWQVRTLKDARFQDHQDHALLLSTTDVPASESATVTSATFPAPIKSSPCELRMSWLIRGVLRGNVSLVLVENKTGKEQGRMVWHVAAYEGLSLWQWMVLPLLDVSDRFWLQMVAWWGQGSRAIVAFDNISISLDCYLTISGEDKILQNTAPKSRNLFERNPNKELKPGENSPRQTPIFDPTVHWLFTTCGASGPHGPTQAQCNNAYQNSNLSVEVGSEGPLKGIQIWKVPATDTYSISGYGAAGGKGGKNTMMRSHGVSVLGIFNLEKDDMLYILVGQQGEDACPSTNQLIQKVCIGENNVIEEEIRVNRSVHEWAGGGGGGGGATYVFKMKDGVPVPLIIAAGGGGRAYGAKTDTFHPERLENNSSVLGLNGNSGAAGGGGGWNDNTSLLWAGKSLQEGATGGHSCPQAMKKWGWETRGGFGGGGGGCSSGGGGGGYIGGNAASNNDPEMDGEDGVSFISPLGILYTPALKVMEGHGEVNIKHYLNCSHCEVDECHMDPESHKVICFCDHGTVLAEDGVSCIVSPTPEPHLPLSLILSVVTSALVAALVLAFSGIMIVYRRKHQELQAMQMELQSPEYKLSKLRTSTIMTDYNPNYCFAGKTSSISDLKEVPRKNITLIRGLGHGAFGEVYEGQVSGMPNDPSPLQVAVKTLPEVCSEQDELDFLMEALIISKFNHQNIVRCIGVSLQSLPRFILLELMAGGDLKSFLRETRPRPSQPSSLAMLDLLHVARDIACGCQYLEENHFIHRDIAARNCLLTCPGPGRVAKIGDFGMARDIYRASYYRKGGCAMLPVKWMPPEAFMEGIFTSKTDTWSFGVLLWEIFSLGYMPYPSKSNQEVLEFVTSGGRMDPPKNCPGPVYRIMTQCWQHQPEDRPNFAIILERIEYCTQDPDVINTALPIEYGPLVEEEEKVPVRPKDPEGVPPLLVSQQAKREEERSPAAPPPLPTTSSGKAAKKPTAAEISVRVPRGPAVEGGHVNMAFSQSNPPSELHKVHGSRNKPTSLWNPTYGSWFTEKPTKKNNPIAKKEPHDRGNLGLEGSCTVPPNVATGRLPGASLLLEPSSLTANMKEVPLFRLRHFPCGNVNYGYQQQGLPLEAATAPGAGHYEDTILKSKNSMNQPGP
Target sequence in this assay (P06748 whole entry, the tested form may be a part): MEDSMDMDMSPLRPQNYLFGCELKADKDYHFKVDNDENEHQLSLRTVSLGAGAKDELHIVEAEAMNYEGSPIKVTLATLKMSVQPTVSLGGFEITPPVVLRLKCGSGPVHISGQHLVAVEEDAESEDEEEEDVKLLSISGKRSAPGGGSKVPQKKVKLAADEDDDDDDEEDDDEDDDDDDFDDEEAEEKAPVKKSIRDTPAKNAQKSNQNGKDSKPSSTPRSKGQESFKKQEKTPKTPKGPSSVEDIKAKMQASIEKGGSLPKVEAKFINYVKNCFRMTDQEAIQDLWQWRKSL
Target sequence in this assay (P40337 whole entry, the tested form may be a part): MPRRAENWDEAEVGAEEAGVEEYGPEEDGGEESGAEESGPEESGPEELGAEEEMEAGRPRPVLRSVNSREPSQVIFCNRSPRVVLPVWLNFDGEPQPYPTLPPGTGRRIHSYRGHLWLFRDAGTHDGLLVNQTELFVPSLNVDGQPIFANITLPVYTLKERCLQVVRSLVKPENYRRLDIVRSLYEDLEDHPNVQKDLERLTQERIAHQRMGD

NCI-H2228 = experiment: Antiproliferative activity against human NCI-H2228 cells expressing EML4-ALK assessed as reduction in cell viability incubated for 72 hrs by CCK8 assay; type: functional, cell-based; conditions: NCI-H2228, 72 h
[2] = target: von Hippel-Lindau disease tumor suppressor/Proto-oncogene tyrosine-protein kinase ROS (Homo sapiens) (UniProt P08922+P40337); experiment: Protac activity at VHL/ROS1 in human SR cells assessed as induction of ROS1 degradation; type: cell-based
[3] = target: von Hippel-Lindau disease tumor suppressor/Receptor-type tyrosine-protein kinase FLT3 (Homo sapiens) (UniProt P36888+P40337); experiment: Protac activity at VHL/FLT3 in human SR cells assessed as induction of FLT3 degradation; type: cell-based
[4] = target: T1, von Hippel-Lindau disease tumor suppressor/ALK tyrosine kinase receptor/Nucleophosmin; experiment: Protac activity at VHL/NPM-ALK fusion protein in human SR cells assessed as degradation of ALK at 100 nM; type: cell-based; conditions: TDE = time-dependent effect
Target sequence in this assay (P06748 whole entry partner, the tested form may be a part): as the sequence (P06748 whole entry, the tested form may be a part) above
Target sequence in this assay (P40337 whole entry partner, the tested form may be a part): as the sequence (P40337 whole entry, the tested form may be a part) above
Target sequence in this assay (Q9UM73 19-1620 limits assumed): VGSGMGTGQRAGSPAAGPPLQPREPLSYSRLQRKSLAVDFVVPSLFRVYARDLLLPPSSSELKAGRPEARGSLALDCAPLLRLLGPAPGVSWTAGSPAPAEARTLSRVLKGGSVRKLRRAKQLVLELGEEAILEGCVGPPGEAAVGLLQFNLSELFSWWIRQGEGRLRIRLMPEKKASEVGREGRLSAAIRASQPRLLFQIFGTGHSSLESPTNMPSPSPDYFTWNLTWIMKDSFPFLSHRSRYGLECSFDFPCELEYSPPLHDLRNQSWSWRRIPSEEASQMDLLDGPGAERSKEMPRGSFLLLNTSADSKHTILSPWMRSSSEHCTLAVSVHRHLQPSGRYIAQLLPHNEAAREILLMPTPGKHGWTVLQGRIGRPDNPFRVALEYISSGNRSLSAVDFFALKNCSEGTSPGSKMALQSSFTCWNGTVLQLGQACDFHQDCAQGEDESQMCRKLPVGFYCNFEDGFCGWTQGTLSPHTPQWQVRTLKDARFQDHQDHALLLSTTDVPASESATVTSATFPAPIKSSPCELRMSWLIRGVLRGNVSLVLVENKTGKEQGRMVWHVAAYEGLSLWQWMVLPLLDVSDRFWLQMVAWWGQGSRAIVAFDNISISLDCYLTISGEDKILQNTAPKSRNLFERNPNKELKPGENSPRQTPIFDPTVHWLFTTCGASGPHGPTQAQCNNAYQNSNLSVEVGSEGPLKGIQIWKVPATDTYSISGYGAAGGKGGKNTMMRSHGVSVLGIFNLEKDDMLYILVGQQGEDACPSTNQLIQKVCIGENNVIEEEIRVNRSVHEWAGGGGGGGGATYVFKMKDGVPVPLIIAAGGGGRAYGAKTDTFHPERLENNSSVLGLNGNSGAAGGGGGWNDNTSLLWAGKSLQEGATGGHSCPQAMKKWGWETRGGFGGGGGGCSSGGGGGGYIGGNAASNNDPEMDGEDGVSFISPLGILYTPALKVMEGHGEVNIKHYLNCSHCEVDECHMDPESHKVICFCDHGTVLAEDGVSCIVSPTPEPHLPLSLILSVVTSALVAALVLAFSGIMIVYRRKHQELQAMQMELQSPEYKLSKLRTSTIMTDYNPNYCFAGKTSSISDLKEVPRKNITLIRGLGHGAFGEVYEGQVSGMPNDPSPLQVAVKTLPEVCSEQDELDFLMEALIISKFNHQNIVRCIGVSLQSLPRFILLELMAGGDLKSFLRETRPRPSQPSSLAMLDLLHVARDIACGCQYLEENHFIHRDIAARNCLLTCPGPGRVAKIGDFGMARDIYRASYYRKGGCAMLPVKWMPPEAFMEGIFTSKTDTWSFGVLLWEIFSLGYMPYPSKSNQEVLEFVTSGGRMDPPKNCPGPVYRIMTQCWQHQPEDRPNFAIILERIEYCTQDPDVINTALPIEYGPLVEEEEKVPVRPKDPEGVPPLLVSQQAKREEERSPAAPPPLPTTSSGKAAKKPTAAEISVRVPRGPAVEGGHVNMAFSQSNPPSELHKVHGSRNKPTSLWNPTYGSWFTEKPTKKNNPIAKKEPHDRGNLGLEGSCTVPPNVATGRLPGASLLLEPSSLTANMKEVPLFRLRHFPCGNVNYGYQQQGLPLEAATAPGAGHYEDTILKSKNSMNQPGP

[5] = target: von Hippel-Lindau disease tumor suppressor/Cyclin-G-associated kinase (Homo sapiens) (UniProt O14976+P40337); experiment: Protac activity at VHL/GAK in human SR cells assessed as induction of GAK degradation; type: cell-based
[6] = target: von Hippel-Lindau disease tumor suppressor/Uridine-cytidine kinase 2 (Homo sapiens) (UniProt Q9BZX2+P40337); experiment: Protac activity at VHL/UCK2 in human SR cells assessed as induction of UCK2 degradation; type: cell-based
[7] = target: von Hippel-Lindau disease tumor suppressor/Aurora kinase A (Homo sapiens) (UniProt O14965+P40337); experiment: Protac activity at VHL/Aurora A in human SR cells assessed as induction of Aurora A degradation; type: cell-based
[8] = target: T1, von Hippel-Lindau disease tumor suppressor/ALK tyrosine kinase receptor/Nucleophosmin; experiment: Protac activity at VHL/NPM-ALK fusion protein in human SR cells assessed as reduction in STAT3 phosphorylation at 1 to 500 nM; type: cell-based; conditions: dose 1-500 nM
Target sequence in this assay (P06748 whole entry partner, the tested form may be a part): as the sequence (P06748 whole entry, the tested form may be a part) above
Target sequence in this assay (P40337 whole entry partner, the tested form may be a part): as the sequence (P40337 whole entry, the tested form may be a part) above
Target sequence in this assay (Q9UM73 19-1620 limits assumed): as the sequence (Q9UM73 19-1620 limits assumed) above

[9] = target: T1, von Hippel-Lindau disease tumor suppressor/ALK tyrosine kinase receptor/Nucleophosmin; experiment: Protac activity at VHL/NPM-ALK fusion protein in human SR cells assessed as induction of ALK degradation 100 nM treated for 24 hrs followed by compound washout and measured after 24 to 48 hrs by Western blot analysis; type: cell-based
Target sequence in this assay (P06748 whole entry partner, the tested form may be a part): as the sequence (P06748 whole entry, the tested form may be a part) above
Target sequence in this assay (P40337 whole entry partner, the tested form may be a part): as the sequence (P40337 whole entry, the tested form may be a part) above
Target sequence in this assay (Q9UM73 19-1620 limits assumed): as the sequence (Q9UM73 19-1620 limits assumed) above

[10] = target: T1, von Hippel-Lindau disease tumor suppressor/ALK tyrosine kinase receptor/Nucleophosmin; experiment: Protac activity at VHL/NPM-ALK fusion protein in human SR cells assessed as degradation of ALK measured after 16 hrs in presence of proteasome inhibitor MLN4924; type: cell-based
Target sequence in this assay (P06748 whole entry partner, the tested form may be a part): as the sequence (P06748 whole entry, the tested form may be a part) above
Target sequence in this assay (P40337 whole entry partner, the tested form may be a part): as the sequence (P40337 whole entry, the tested form may be a part) above
Target sequence in this assay (Q9UM73 19-1620 limits assumed): as the sequence (Q9UM73 19-1620 limits assumed) above

[11] = target: von Hippel-Lindau disease tumor suppressor/ALK tyrosine kinase receptor/Echinoderm microtubule-associated protein-like 4 (Homo sapiens, UniProt Q9UM73+Q9HC35+P40337, G1202R); experiment: Protac activity at VHL/EML4-ALK G1202R mutant fusion protein (unknown origin) expressed in HEK293T cells assessed as induction of ALK degradation by Western blot analysis; type: cell-based
[12] = target: T1, von Hippel-Lindau disease tumor suppressor/ALK tyrosine kinase receptor/Nucleophosmin; experiment: Protac activity at VHL/NPM-ALK fusion protein in human SR cells assessed as degradation of ALK measured after 16 hrs in presence of proteasome inhibitor MG132; type: cell-based
Target sequence in this assay (P06748 whole entry partner, the tested form may be a part): as the sequence (P06748 whole entry, the tested form may be a part) above
Target sequence in this assay (P40337 whole entry partner, the tested form may be a part): as the sequence (P40337 whole entry, the tested form may be a part) above
Target sequence in this assay (Q9UM73 19-1620 limits assumed): as the sequence (Q9UM73 19-1620 limits assumed) above

[13] = target: von Hippel-Lindau disease tumor suppressor/ALK tyrosine kinase receptor/Echinoderm microtubule-associated protein-like 4 (Homo sapiens, UniProt P40337+Q9HC35+Q9UM73, G1202R)
[14] = target: von Hippel-Lindau disease tumor suppressor/ALK tyrosine kinase receptor/Echinoderm microtubule-associated protein-like 4 (Homo sapiens) (UniProt Q9UM73+Q9HC35+P40337); experiment: Protac activity at VHL/EML4-ALK fusion protein in human NCI-H2228 cells assessed as induction of ALK degradation at 50 to 500 nM; type: cell-based; conditions: dose 50-500 nM
[15] = target: von Hippel-Lindau disease tumor suppressor/Insulin-like growth factor 1 receptor (Homo sapiens) (UniProt P08069+P40337); experiment: Protac activity at VHL/IGF1R in human SR cells assessed as induction of IGF1R degradation; type: cell-based
[16] = target: T1, von Hippel-Lindau disease tumor suppressor/ALK tyrosine kinase receptor/Nucleophosmin; experiment: Protac activity at VHL/NPM-ALK fusion protein in human SR cells assessed as reduction in ALK phosphorylation at 10 nM; type: cell-based
Target sequence in this assay (P06748 whole entry partner, the tested form may be a part): as the sequence (P06748 whole entry, the tested form may be a part) above
Target sequence in this assay (P40337 whole entry partner, the tested form may be a part): as the sequence (P40337 whole entry, the tested form may be a part) above
Target sequence in this assay (Q9UM73 19-1620 limits assumed): as the sequence (Q9UM73 19-1620 limits assumed) above

SR = experiment: Antiproliferative activity against human SR cells assessed as reduction in cell growth; type: functional, cell-based
[17] = target: T1, von Hippel-Lindau disease tumor suppressor/ALK tyrosine kinase receptor/Nucleophosmin; experiment: Protac activity at VHL/NPM-ALK fusion protein in human SR cells assessed as degradation of ALK at 100 nM measured after 24 hrs; type: cell-based
[18] = target: T1, von Hippel-Lindau disease tumor suppressor/ALK tyrosine kinase receptor/Nucleophosmin; experiment: Protac activity at VHL/NPM-ALK fusion protein in human SR cells assessed as reduction in ALK phosphorylation at 50 nM; type: cell-based; design: scale not given: the % may be the effect or the level left

SMILES: COc1cc(N2CCC(NC(=O)CCCCCCCCCC(=O)N[C@H](C(=O)N3C[C@H](O)C[C@H]3C(=O)NCc3ccc(-c4scnc4C)cc3)C(C)(C)C)CC2)ccc1Nc1ncc(Cl)c(Nc2ccccc2P(C)(C)=O)n1
- IC50 (cells): 259 nM
- IC50 (NCI-H69): 799 nM
- IC50 (EML4-ALK): 146 nM
- DC50 [1]: 7 nM
- IC50 (NCI-H2228): 46 nM
- Activity [2]: inactive
- Activity [3]: inactive
- Activity [4]: Tde
- Activity [5]: inactive
- Activity [6]: inactive
- Activity [7]: inactive
- Activity [8]: Active
- Activity [9]: Active
- Activity [10]: inactive
- DC50 [11]: < 200 nM
- Activity [12]: inactive
- IC50 [13]: 166 nM
- Activity [14]: Active
- Activity [15]: inactive
- Activity [16]: Active
- IC50 (SR): 1.7 nM

SMILES: COc1cc(N2CCC(NC(=O)CCCCCCCCCC(=O)N[C@H](C(=O)N3C[C@@H](O)C[C@H]3C(=O)NCc3ccc(-c4scnc4C)cc3)C(C)(C)C)CC2)ccc1Nc1ncc(Cl)c(Nc2ccccc2P(C)(C)=O)n1
- IC50 (NCI-H2228): 114 nM
- Activity [17]: inactive
- Activity [18]: 100%
- Activity [8]: Active
- IC50 [13]: 608 nM
- IC50 (SR): 5.5 nM
